Experimental data as given in ChEMBL document CHEMBL5550122, “Photodynamic anticancer activity evaluation of novel 5-aminolevulinic acid and 3-hydroxypyridinone conjugates” (Bioorg Med Chem, 2024).
Calls of active or inactive are those of the source. The calls are words filed in the database; no cut-off is given here.

Test system: A-375
Test: Cytotoxicity against human A-375 cells assessed as reduction in cell viability at 100 to 400 uM preincubated for 4 hrs under dark condition followed by irradiation with blue light at 5 J.cm^-2 energy level and measured after 18 hrs by MTT assay
Type: functional, cell-based
Details: dose 100-400 µM, time 22.0 hrs

Question: With `COC(=O)CCC(=O)CNC(=O)CCCCn1cc(O)c(=O)cc1C` as the compound, how does the Activity read?
Answer: The Activity was “inactive”.

Question: With `COC(=O)CCC(=O)CNC(=O)CCn1cc(O)c(=O)cc1CO` as the compound, how does the Activity read?
Answer: The Activity was “inactive”.

Question: With `COC(=O)CCC(=O)CNC(=O)CCCCCn1cc(O)c(=O)cc1CO` as the compound, how does the Activity read?
Answer: Its Activity is “inactive”.

Question: How did the Activity turn out when `COC(=O)CCC(=O)CNC(=O)[C@H](Cc1ccccc1)NC(=O)CCCCCn1cc(O)c(=O)cc1C` was run?
Answer: Its Activity is “inactive”.

Question: How did the Activity turn out when `COC(=O)CCC(=O)CNC(=O)[C@H](Cc1ccccc1)NC(=O)Cn1ccc(=O)c(O)c1C` was run?
Answer: The Activity was “inactive”.

Question: How did the Activity turn out when `COC(=O)CCC(=O)CNC(=O)[C@H](Cc1ccccc1)NC(=O)Cn1cc(O)c(=O)cc1C` was run?
Answer: The Activity was “inactive”.

Question: For `COC(=O)CCC(=O)CNC(=O)[C@H](CC(C)C)NC(=O)Cn1cc(O)c(=O)cc1C`, which Activity is on record?
Answer: Its Activity is “inactive”.

Question: For `COC(=O)CCC(=O)CNC(=O)CCCn1cc(O)c(=O)cc1C`, which Activity is on record?
Answer: The Activity was “inactive”.

Question: Which Activity does the source give for `COC(=O)CCC(=O)CNC(=O)CCCn1cc(O)c(=O)cc1CO` here?
Answer: The Activity was “inactive”.

Question: For `COC(=O)CCC(=O)CNC(=O)CCn1cc(O)c(=O)cc1C`, which Activity is on record?
Answer: Its Activity is “inactive”.

Question: Which Activity does the source give for `COC(=O)CCC(=O)CNC(=O)Cn1cc(O)c(=O)cc1C` here?
Answer: Its Activity is “inactive”.

Question: Which Activity does the source give for `COC(=O)CCC(=O)CNC(=O)Cn1cc(O)c(=O)cc1CO` here?
Answer: The Activity was “inactive”.

Test system: HeLa
Test: Cytotoxicity against human HeLa cells assessed as reduction in cell viability at 100 to 400 uM incubated for 4 hrs under dark condition by MTT assay
Type: functional, cell-based
Details: dose 100-400 µM

Question: Which Activity does the source give for `COC(=O)CCC(=O)CNC(=O)CCCCn1cc(O)c(=O)cc1C` here?
Answer: The Activity was “inactive”.

Question: With `COC(=O)CCC(=O)CNC(=O)CCn1cc(O)c(=O)cc1CO` as the compound, how does the Activity read?
Answer: The Activity was “inactive”.

Question: Which Activity does the source give for `COC(=O)CCC(=O)CNC(=O)CCCCCn1cc(O)c(=O)cc1CO` here?
Answer: Its Activity is “inactive”.

Question: How did the Activity turn out when `COC(=O)CCC(=O)CNC(=O)[C@H](Cc1ccccc1)NC(=O)CCCCCn1cc(O)c(=O)cc1C` was run?
Answer: Its Activity is “inactive”.

Question: With `COC(=O)CCC(=O)CNC(=O)[C@H](Cc1ccccc1)NC(=O)Cn1ccc(=O)c(O)c1C` as the compound, how does the Activity read?
Answer: The Activity was “inactive”.

Question: `COC(=O)CCC(=O)CNC(=O)[C@H](Cc1ccccc1)NC(=O)Cn1cc(O)c(=O)cc1C` was tested. Which Activity did it give?
Answer: Its Activity is “inactive”.

Question: How did the Activity turn out when `COC(=O)CCC(=O)CNC(=O)[C@H](CC(C)C)NC(=O)Cn1cc(O)c(=O)cc1C` was run?
Answer: The Activity was “inactive”.

Question: For `COC(=O)CCC(=O)CNC(=O)CCCn1cc(O)c(=O)cc1C`, which Activity is on record?
Answer: Its Activity is “inactive”.

Question: How did the Activity turn out when `COC(=O)CCC(=O)CNC(=O)CCCn1cc(O)c(=O)cc1CO` was run?
Answer: The Activity was “inactive”.

Question: Which Activity does the source give for `COC(=O)CCC(=O)CNC(=O)CCn1cc(O)c(=O)cc1C` here?
Answer: Its Activity is “inactive”.

Question: For `COC(=O)CCC(=O)CNC(=O)Cn1cc(O)c(=O)cc1C`, which Activity is on record?
Answer: The Activity was “inactive”.

Question: For `COC(=O)CCC(=O)CNC(=O)Cn1cc(O)c(=O)cc1CO`, which Activity is on record?
Answer: The Activity was “inactive”.

Test system: A-375
Test: Cytotoxicity against human A-375 cells assessed as reduction in cell viability at 100 to 400 uM incubated for 4 hrs under dark condition by MTT assay
Type: functional, cell-based
Details: dose 100-400 µM

Question: With `COC(=O)CCC(=O)CNC(=O)CCCCn1cc(O)c(=O)cc1C` as the compound, how does the Activity read?
Answer: Its Activity is “inactive”.

Question: How did the Activity turn out when `COC(=O)CCC(=O)CNC(=O)CCn1cc(O)c(=O)cc1CO` was run?
Answer: Its Activity is “inactive”.

Question: How did the Activity turn out when `COC(=O)CCC(=O)CNC(=O)CCCCCn1cc(O)c(=O)cc1CO` was run?
Answer: The Activity was “inactive”.

Question: `COC(=O)CCC(=O)CNC(=O)[C@H](Cc1ccccc1)NC(=O)CCCCCn1cc(O)c(=O)cc1C` was tested. Which Activity did it give?
Answer: The Activity was “inactive”.

Question: `COC(=O)CCC(=O)CNC(=O)[C@H](Cc1ccccc1)NC(=O)Cn1ccc(=O)c(O)c1C` was tested. Which Activity did it give?
Answer: Its Activity is “inactive”.

Question: How did the Activity turn out when `COC(=O)CCC(=O)CNC(=O)[C@H](Cc1ccccc1)NC(=O)Cn1cc(O)c(=O)cc1C` was run?
Answer: Its Activity is “inactive”.

Question: Which Activity does the source give for `COC(=O)CCC(=O)CNC(=O)[C@H](CC(C)C)NC(=O)Cn1cc(O)c(=O)cc1C` here?
Answer: Its Activity is “inactive”.

Question: With `COC(=O)CCC(=O)CNC(=O)CCCn1cc(O)c(=O)cc1C` as the compound, how does the Activity read?
Answer: The Activity was “inactive”.

Question: How did the Activity turn out when `COC(=O)CCC(=O)CNC(=O)CCCn1cc(O)c(=O)cc1CO` was run?
Answer: The Activity was “inactive”.

Question: For `COC(=O)CCC(=O)CNC(=O)CCn1cc(O)c(=O)cc1C`, which Activity is on record?
Answer: The Activity was “inactive”.

Question: How did the Activity turn out when `COC(=O)CCC(=O)CNC(=O)Cn1cc(O)c(=O)cc1C` was run?
Answer: Its Activity is “inactive”.

Question: For `COC(=O)CCC(=O)CNC(=O)Cn1cc(O)c(=O)cc1CO`, which Activity is on record?
Answer: Its Activity is “inactive”.

Test system: HeLa
Test: Cytotoxicity against human HeLa cells assessed as reduction in cell viability at 100 to 400 uM preincubated for 4 hrs under dark condition followed by irradiation with blue light at 5 J.cm^-2 energy level and measured after 18 hrs by MTT assay
Type: functional, cell-based
Details: dose 100-400 µM, time 22.0 hrs

Question: Which Activity does the source give for `COC(=O)CCC(=O)CNC(=O)CCCCn1cc(O)c(=O)cc1C` here?
Answer: The Activity was “inactive”.

Question: How did the Activity turn out when `COC(=O)CCC(=O)CNC(=O)CCn1cc(O)c(=O)cc1CO` was run?
Answer: The Activity was “inactive”.

Question: How did the Activity turn out when `COC(=O)CCC(=O)CNC(=O)CCCCCn1cc(O)c(=O)cc1CO` was run?
Answer: Its Activity is “inactive”.

Question: How did the Activity turn out when `COC(=O)CCC(=O)CNC(=O)[C@H](Cc1ccccc1)NC(=O)CCCCCn1cc(O)c(=O)cc1C` was run?
Answer: The Activity was “inactive”.

Question: `COC(=O)CCC(=O)CNC(=O)[C@H](Cc1ccccc1)NC(=O)Cn1ccc(=O)c(O)c1C` was tested. Which Activity did it give?
Answer: The Activity was “inactive”.

Question: For `COC(=O)CCC(=O)CNC(=O)[C@H](Cc1ccccc1)NC(=O)Cn1cc(O)c(=O)cc1C`, which Activity is on record?
Answer: Its Activity is “inactive”.

Question: How did the Activity turn out when `COC(=O)CCC(=O)CNC(=O)[C@H](CC(C)C)NC(=O)Cn1cc(O)c(=O)cc1C` was run?
Answer: Its Activity is “inactive”.

Question: For `COC(=O)CCC(=O)CNC(=O)CCCn1cc(O)c(=O)cc1C`, which Activity is on record?
Answer: The Activity was “inactive”.

Question: `COC(=O)CCC(=O)CNC(=O)CCCn1cc(O)c(=O)cc1CO` was tested. Which Activity did it give?
Answer: The Activity was “inactive”.

Question: For `COC(=O)CCC(=O)CNC(=O)CCn1cc(O)c(=O)cc1C`, which Activity is on record?
Answer: Its Activity is “inactive”.

Question: Which Activity does the source give for `COC(=O)CCC(=O)CNC(=O)Cn1cc(O)c(=O)cc1C` here?
Answer: The Activity was “inactive”.

Question: Which Activity does the source give for `COC(=O)CCC(=O)CNC(=O)Cn1cc(O)c(=O)cc1CO` here?
Answer: Its Activity is “inactive”.

Test system: MCF7
Test: Cytotoxicity against human MCF7 cells assessed as reduction in cell viability at 100 to 400 uM preincubated for 4 hrs under dark condition followed by irradiation with blue light at 5 J.cm^-2 energy level and measured after 18 hrs by MTT assay
Type: functional, cell-based
Details: dose 100-400 µM, time 22.0 hrs

Question: How did the Activity turn out when `COC(=O)CCC(=O)CNC(=O)CCCCn1cc(O)c(=O)cc1C` was run?
Answer: The Activity was “inactive”.

Question: Which Activity does the source give for `COC(=O)CCC(=O)CNC(=O)CCn1cc(O)c(=O)cc1CO` here?
Answer: Its Activity is “inactive”.

Question: How did the Activity turn out when `COC(=O)CCC(=O)CNC(=O)CCCCCn1cc(O)c(=O)cc1CO` was run?
Answer: The Activity was “inactive”.

Question: With `COC(=O)CCC(=O)CNC(=O)[C@H](Cc1ccccc1)NC(=O)CCCCCn1cc(O)c(=O)cc1C` as the compound, how does the Activity read?
Answer: Its Activity is “inactive”.

Question: Which Activity does the source give for `COC(=O)CCC(=O)CNC(=O)[C@H](Cc1ccccc1)NC(=O)Cn1ccc(=O)c(O)c1C` here?
Answer: The Activity was “inactive”.

Question: `COC(=O)CCC(=O)CNC(=O)[C@H](Cc1ccccc1)NC(=O)Cn1cc(O)c(=O)cc1C` was tested. Which Activity did it give?
Answer: The Activity was “inactive”.

Question: How did the Activity turn out when `COC(=O)CCC(=O)CNC(=O)[C@H](CC(C)C)NC(=O)Cn1cc(O)c(=O)cc1C` was run?
Answer: Its Activity is “inactive”.

Question: Which Activity does the source give for `COC(=O)CCC(=O)CNC(=O)CCCn1cc(O)c(=O)cc1C` here?
Answer: Its Activity is “inactive”.

Question: With `COC(=O)CCC(=O)CNC(=O)CCCn1cc(O)c(=O)cc1CO` as the compound, how does the Activity read?
Answer: The Activity was “inactive”.

Question: With `COC(=O)CCC(=O)CNC(=O)CCn1cc(O)c(=O)cc1C` as the compound, how does the Activity read?
Answer: Its Activity is “inactive”.

Question: With `COC(=O)CCC(=O)CNC(=O)Cn1cc(O)c(=O)cc1C` as the compound, how does the Activity read?
Answer: The Activity was “inactive”.

Question: With `COC(=O)CCC(=O)CNC(=O)Cn1cc(O)c(=O)cc1CO` as the compound, how does the Activity read?
Answer: The Activity was “inactive”.

Test system: MCF7
Test: Cytotoxicity against human MCF7 cells assessed as reduction in cell viability at 100 to 400 uM incubated for 4 hrs under dark condition by MTT assay
Type: functional, cell-based
Details: dose 100-400 µM

Question: `COC(=O)CCC(=O)CNC(=O)CCCCn1cc(O)c(=O)cc1C` was tested. Which Activity did it give?
Answer: The Activity was “inactive”.

Question: For `COC(=O)CCC(=O)CNC(=O)CCn1cc(O)c(=O)cc1CO`, which Activity is on record?
Answer: The Activity was “inactive”.

Question: How did the Activity turn out when `COC(=O)CCC(=O)CNC(=O)CCCCCn1cc(O)c(=O)cc1CO` was run?
Answer: The Activity was “inactive”.

Question: `COC(=O)CCC(=O)CNC(=O)[C@H](Cc1ccccc1)NC(=O)CCCCCn1cc(O)c(=O)cc1C` was tested. Which Activity did it give?
Answer: The Activity was “inactive”.

Question: Which Activity does the source give for `COC(=O)CCC(=O)CNC(=O)[C@H](Cc1ccccc1)NC(=O)Cn1ccc(=O)c(O)c1C` here?
Answer: Its Activity is “inactive”.

Question: Which Activity does the source give for `COC(=O)CCC(=O)CNC(=O)[C@H](Cc1ccccc1)NC(=O)Cn1cc(O)c(=O)cc1C` here?
Answer: The Activity was “inactive”.

Question: How did the Activity turn out when `COC(=O)CCC(=O)CNC(=O)[C@H](CC(C)C)NC(=O)Cn1cc(O)c(=O)cc1C` was run?
Answer: Its Activity is “inactive”.

Question: How did the Activity turn out when `COC(=O)CCC(=O)CNC(=O)CCCn1cc(O)c(=O)cc1C` was run?
Answer: Its Activity is “inactive”.

Question: `COC(=O)CCC(=O)CNC(=O)CCCn1cc(O)c(=O)cc1CO` was tested. Which Activity did it give?
Answer: The Activity was “inactive”.

Question: Which Activity does the source give for `COC(=O)CCC(=O)CNC(=O)CCn1cc(O)c(=O)cc1C` here?
Answer: The Activity was “inactive”.

Question: How did the Activity turn out when `COC(=O)CCC(=O)CNC(=O)Cn1cc(O)c(=O)cc1C` was run?
Answer: Its Activity is “inactive”.

Question: How did the Activity turn out when `COC(=O)CCC(=O)CNC(=O)Cn1cc(O)c(=O)cc1CO` was run?
Answer: The Activity was “inactive”.
